Source: patent publication US9499486B2, “Kinase inhibitor” (RESPIVERT LIMITED, priority 2014, dated 2016)
Values joined by “and” are separate entries in the source; they are usually repeats but may differ in a detail not shown here. Equal values may be shown once. Where a name gives a salt, the structure may show the parent alone. Read-outs that look alike come from different tables or passages of the source.

Experiments:
[1] = tested on: Jurkat cells; experiment: Cell cytotoxicity assay (assay r); type: cell-based, human; conditions: 24 hours
Experimental: 1×10^5 Jurkat cells (immortalised human T lymphocytes) are added to the appropriate number of wells of a 96 well plate in 100 μL of media (RPMI supplemented with 10% foetal bovine serum). 1 μL of DMSO control (final concentration 1.0% v/v) or test compound (final concentration 20, 5 or 1 μg/mL) is added to the wells and incubated at 37° C., 5% CO2. After 24 hours, the plate is centrifuged at 1200 rpm for 3 minutes and the supernatant discarded. Cells are then resuspended in 150 μL (final concentration 7.5 μg/mL) of propidium iodide (PI) in PBS and incubated at 37° C., 5% CO2 for 15 minutes. After 15 minutes, cells are analysed by flow cytometry (BD accuri) using the FL3 window. The % viability is calculated as the % of cells that are PI negative in the test wells normalised to the DMSO control.

[2] = tested on: non-mutant kinases; type: binding; conditions: for number of individual kinase hits, S(1): % Ctrl <1; for number of individual kinase hits, S(10): % Ctrl <10; for number of individual kinase hits, S(35): % Ctrl <35
Description: These assays may be conducted by DiscoverX (formerly Ambit; San Diego, Calif.).

[3] = Stability of pharmaceutical formulations (1 mg/mL solutions); type: physicochemical; conditions: for Original Purity: 1 mg/mL in pH 7.2 phosphate buffer, 4.5% mannitol, 3% polyoxyl 40 stearate, before storage; for Osmolality / pH: 1 mg/mL stock solution; for Purity at week n = 1 / Purity at week n = 2 / Purity at week n = 4: 1 mg/mL solution
Experimental: The samples were sonicated to achieve clear solutions having the following properties: Osmolality (mOsm/kg): 310 (Na), 314 (HCl); pH: 7.00 (Na), 7.05 (HCl). 0.5 mL of the stock solutions were diluted to 1 mL with 20% DMSO in water & injected for purity analysis by HPLC. The remaining stock solutions were then split into aliquots of 0.5 mL in HPLC vials, and stored at various conditions in duplicate. Samples were stored at 5 and 25° C., before being analysed by HPLC at 1, 2 and 4 weeks. Separate samples were stored at 40° C. and analysed at 4 weeks.

[4] = Solubility in fasted-state simulated colonic fluid (FaSSCoF); type: physicochemical; conditions: pH 6.5, 25° C., 24 h; for solubility thermodynamic at 24 h: fasted-state simulated colonic fluid (FaSSCoF), 25 °C, pH 6.5, fassgf or other biorelevant, thermodynamic from solid
Experimental: The solubility of the compound of the invention in FaSSCoF at pH 6.5 is determined using a modification of a previously-reported procedure (Vertzoni, M., et al. Pharm. Res. 2010, 27, 2187-2196). In place of the bile salt extract employed in the original procedure (which extract is no longer available), the modified procedure uses a mixture of sodium taurochlorate (0.15 g), glycocholic acid (0.15 g), ursodeoxycholic acid (0.05 g), cholic acid (0.05 g), and glycodeoxycholic acid (0.05 g). These five bile acids are ground together with a mortar and pestle to produce a fine white powder that is incorporated into the FaSSCoF, as outlined below.
FaSSCoF medium: Tris(hydroxymethyl)aminomethane (Tris; 0.275 g) and maleic acid (0.44 g) are dissolved in water (35 mL) to give a solution whose pH is adjusted to 6.5 by treatment with 0.5M NaOH (ca. 12 mL). The solution is then made up to 50 mL with water. A portion of this Tris/maleate buffer solution (ca. 25 mL) is added to a 0.5 L round-bottomed flask, before being treated with 0.00565 g of the bile acid mixture described above. Solutions of phosphatidylcholine (0.0111 g) in DCM (0.15 mL) and palmitic acid (0.0013 g) in DCM (0.15 mL) are added, then the organic solvent is evaporated off under reduced pressure at 40° C. until a clear solution, with no perceptible DCM odour, is achieved. The volume of the evaporated solution is adjusted to 50 mL by addition of the remainder of Tris/maleate buffer, then BSA (0.115 g) is added, before being dissolved by gentle agitation.
Solubility Determination: Test compounds are suspended in the pH 6.5 FaSSCoF medium to give a maximum final concentration of 2-10 mg/mL. The suspensions are equilibrated at 25° C. for 24 h, before being filtered through a glass fibre C filter. The filtrates are then diluted as appropriate for injection and quantification by HPLC with reference to a standard. Different volumes of the standard, diluted and undiluted sample solutions are injected and the solubilities are calculated using the peak areas determined by integration of the peak found at the same retention time as the principal peak in the standard injection.

[5] = Systemic pharmacokinetics and total colon tissue distribution after single oral administration; type: in vivo, mouse; conditions: male, C57BL/6, mouse, mice, oral 5 mg/kg, compound 1 measured
Experimental: Studies were conducted by Sai Life Sciences (Hinjewadi, Pune, India) to investigate the systemic pharmacokinetics and total colon tissue distribution of the compound of the invention. In particular, pharmacokinetic studies were carried out in male C57BL/6 mice following a single oral administration of the compound.

[6] = listed as Example 1, hydrochloride salt
[7] = stored at 5 ° C., listed as Example 1, hydrochloride salt
[8] = stored at 25 ° C., listed as Example 1, hydrochloride salt
[9] = read-out: pH 6.5 FaSSCoF Solubility Run 1
[10] = plasma, read-out: Mean plasma concentration
[11] = total colon, read-out: Mean total colon level
[12] = listed as Example 1, sodium salt
[13] = stored at 5 ° C., listed as Example 1, sodium salt
[14] = stored at 25 ° C., listed as Example 1, sodium salt

COCC(=O)Nc1cc(Oc2ccc(NC(=O)Nc3cc(C(C)(C)C)nn3-c3ccc(C)cc3)c3ccccc23)ccn1 [Reference Compound, reference compound]
% Viability at 1 μg/mL ([1]; 1 μg/mL): 23.5% | % Viability at 5 μg/mL ([1]; 5 μg/mL): 18.9% | % Viability at 20 μg/mL ([1]; 20 μg/mL): 17.3% | number of individual kinase hits, S(1) ([2]; 50 nM): 7 | number of individual kinase hits, S(10) ([2]; 50 nM): 32 | number of individual kinase hits, S(35) ([2]; 50 nM): 67 | number of individual kinase hits, S(1) ([2]; 500 nM): 45 | number of individual kinase hits, S(10) ([2]; 500 nM): 105 | number of individual kinase hits, S(35) ([2]; 500 nM): 143

COc1cc(Nc2cc(Oc3ccc(NC(=O)Nc4cc(C(C)(C)C)cc(NS(C)(=O)=O)c4OC)c4ccccc34)ccn2)ccc1C(=O)O [1 (hydrochloride salt), 4-((4-((4-(3-(5-(tert-Butyl)-2-methoxy-3-(methylsulfonamido)phenyl)ureido)naphthalen-1-yl)oxy)pyridin-2-yl)amino)-2-methoxybenzoic acid]
Original Purity [3, 6]: 98.1% | Osmolality [3, 6]: 314 mOsm/kg | pH [3, 6]: 7.05 | Purity at week n = 1 [3, 7]: 98.2% | Purity at week n = 2 [3, 7]: 98.1% and 98.0% | Purity at week n = 4 [3, 7]: 97.9% and 98.0% | Purity at week n = 1 [3, 8]: 98.0% | Purity at week n = 2 [3, 8]: 97.7% and 97.6% | Purity at week n = 4 [3, 8]: 97.2% and 97.4% | Purity at week n = 4 ([3]; stored at 40 ° C., listed as Example 1, hydrochloride salt): 79.2% and 80.4% | solubility thermodynamic at 24 h [4, 9]: 16 µg/mL | pH 6.5 FaSSCoF Solubility Run 2 [4]: 0.015 mg/mL

COc1cc(Nc2cc(Oc3ccc(NC(=O)Nc4cc(C(C)(C)C)cc(NS(C)(=O)=O)c4OC)c4ccccc34)ccn2)ccc1C(=O)O [1 (sodium salt), 4-((4-((4-(3-(5-(tert-Butyl)-2-methoxy-3-(methylsulfonamido)phenyl)ureido)naphthalen-1-yl)oxy)pyridin-2-yl)amino)-2-methoxybenzoic acid]
concentration at 0.5 h [5, 10]: 44.9 ng/mL | concentration at 1 h [5, 10]: 49.2 ng/mL | concentration at 2 h [5, 10]: 13 ng/mL | concentration at 4 h [5, 10]: 5.2 ng/mL | concentration at 6 h [5, 10]: 1.9 ng/mL | concentration at 8 h [5, 10]: 0.6 ng/mL | concentration at 12 h [5, 10]: 5.3 ng/mL | concentration at 24 h [5, 10]: 0 ng/mL | concentration at 0.5 h [5, 11]: 4.3 ng/g | concentration at 1 h [5, 11]: 9.3 ng/g | concentration at 2 h [5, 11]: 52.4 ng/g | concentration at 4 h [5, 11]: 10400 ng/g | concentration at 6 h [5, 11]: 4050 ng/g | concentration at 8 h [5, 11]: 12900 ng/g | concentration at 12 h [5, 11]: 535 ng/g | concentration at 24 h [5, 11]: 41.4 ng/g | Original Purity [3, 12]: 98.6% and 98.5% | Osmolality [3, 12]: 310 mOsm/kg | pH [3, 12]: 7.00 | Purity at week n = 1 [3, 13]: 98.2% and 98.4% | Purity at week n = 2 [3, 13]: 98.4% and 98.5% | Purity at week n = 4 [3, 13]: 98.3% and 98.4% | Purity at week n = 1 [3, 14]: 98.4% and 98.5% | Purity at week n = 2 [3, 14]: 98.1% | Purity at week n = 4 [3, 14]: 97.6% | Purity at week n = 4 ([3]; stored at 40 ° C., listed as Example 1, sodium salt): 76.0% and 73.7% | solubility thermodynamic at 24 h [4, 9]: 31 µg/mL | pH 6.5 FaSSCoF Solubility Run 2 [4]: 0.032 mg/mL | pH 6.5 FaSSCoF Solubility Run 3 [4]: 0.020 mg/mL | pH 6.5 FaSSCoF Solubility Run 4 [4]: 0.025 mg/mL

C#Cc1cc(Nc2nccc(Oc3ccc(NC(=O)Nc4cc(C(C)(C)C)nn4-c4ccc(C)cc4)c4ccccc34)n2)cc(C(=O)NCCOCCOCCOC)c1 [Reference Compound A, 3-((4-((4-(3-(3-(tert-butyl)-1-(p-tolyl)-1H-pyrazol-5-yl)ureido)naphthalen-1-yl)oxy)pyrimidin-2-yl)amino)-5-ethynyl-N-(2-(2-(2-methoxyethoxy)ethoxy)ethyl)benzamide, reference compound]
solubility thermodynamic at 24 h [4, 9]: < 1 µg/mL | solubility thermodynamic at 24 h ([4]; read-out: pH 6.5 FaSSCoF Solubility Run 2): < 1 µg/mL
